Tests used:
[1] = biological target: wild-type EGFR (Homo sapiens (Human), UniProt P00533); assay: In vitro EGFR kinase activity assay (Z'-Lyte); assay type: biochemical; conditions: EGFR WT; read-out: Inhibitory activity on EGFR kinase (IC50, nM) WT;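 also: Ten-point dose series from 5.1×10^−11 to 1.0×10^−6 mol/L, kinase reaction 1.5 h at room temperature, then 1 h development cleaving unphosphorylated peptide, phosphopeptide as 100% phosphorylation control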
Method: (§8) Inhibitory effects in vitro of the compounds provided in the present invention on EGFR kinase activity was tested as follows:
(§9) 10 concentration gradients, from 5.1×10^−11 mol/L to 1.0×10^−6 mol/L, were set for all of the compounds to be tested.
(§10) 10 μL of kinase reaction system comprised 2.5 μL of compound solution, 5 μL of Kinase/peptide mixture, and 2.5 μL of ATP solution. 5 μL of phosphopeptide solution was used in place of kinase/peptide mixture as 100% phosphorylation control. […] After thoroughly mixing the solution within the plate, the plate was incubated at room temperature for 1.5 hours. 5 μL of DevelopmentSolution was added into each well, and then the plate was incubated at room temperature for another 1 hour, and non-phosphorylated peptide was cleaved within this period. Finally, the reaction was quenched by adding 5 μL of Stop Reagent. The Plate was measured with EnVision Multilabel Reader (Perkin Elmer). Experimental data were calculated by using GraphPad Prism version 4.0. Each experiment was repeated more than three times.

[2] = biological target: EGFR-T790M (Homo sapiens (Human), UniProt P00533, T790M); assay: In vitro EGFR kinase activity assay (Z'-Lyte); conditions: read-out: Inhibitory activity on EGFR kinase (IC50, nM) T790M
Method: as §8, §9, §10

[3] = biological target: BLK (Homo sapiens (Human), UniProt P51451); assay: BLK kinase activity assay (Caliper); assay type: biochemical; conditions: read-out: Inhibitory activity on kinase (IC50, nM) BLK
Method: (§1) Preparation of 1× kinase matrix buffer and stop buffer.
(§2) Preparation of compound solution. The compound was dissolved in 100% DMSO to a concentration, which was 50 times of the final highest inhibiting-concentration. 100 μL of the compound solution as said above was transferred into wells of 96-well plate. The above compound solution was sequentially diluted to the final desired concentration. In two blank wells of same 96-well plate, 100 μL of 100% DMSO was added as no-compound and no-kinase control, and this plate was used as the original plate.
(§3) Preparation of intermediate plate. 10 μL of compound solution was transferred from the original plate to another 96-well plate as the intermediate plate; 90 μL of 1× kinase buffer was added into each well of the intermediate plate, and the intermediate plate was shaken for 10 min.
(§4) Preparation of assay plate. 5 μL of solution from each well of intermediate plate was added into a 384-well plate, and repeated controls were set.
(§5) Kinase reaction. 2.5× kinase solution and 2.5× peptide solution were prepared. 2.5× kinase solution was transferred into assay plate. Assay plate comprised 5 μL of the compound solution in 10% DMSO. 10 μL of 2.5× kinase solution was added in each well of 384-well assay plate. […] 2.5× peptide solution was added into each well. After incubated at 28° C. for an appropriate time, 25 μL of stop buffer was added to quench the reaction. Experimental data were collected in Caliper. Curve was fitted.

[4] = biological target: EGFR-L858R/T790M (Homo sapiens (Human), UniProt P00533, L858R/T790M); assay: In vitro EGFR kinase activity assay (Z'-Lyte); assay type: biochemical; conditions: read-out: Inhibitory activity on EGFR kinase (IC50, nM) T790M/L858R;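 also: Cell-free kinase reaction with peptide substrate and ATP, 1.5 h at room temperature, development cleaving unphosphorylated peptide, 10-point dilution 0.051–1000 nM, phosphopeptide as 100% phosphorylation control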
Method: as §8, §9, §10

[5] = test system: H1975 (non-small cell lung cancer cells, EGFR L858R/T790M); assay: Cell proliferation and growth inhibition analysis; assay type: cell-based; conditions: Homo sapiens, NCI-H1975, 72 hours, read-out: Inhibitory activity on cell proliferation (IC50, μM) H1975
Method: (§6) Cell proliferation was evaluated by MTS assay. Cells were exposed to the process conditions for 72 hours, and the number of cells for each cell line used in the experiment was adjusted according to the absorbance value (absorbance value at 490 nm was 1.3-2.2). 6 concentration gradients (0.1 nM-10 μM) were set for the compounds to be tested, with six parallel controls for each concentration.
(§7) H1975, HCC827, A549, BT474, MCF-7, SK-BR-3 cells were cultured in the corresponding medium. Upon recovery, the cells were passaged at least two times and then used in experiments. Cells in Log phase were trypsinized and resuspended in the medium. H1975 (1000 cells per well), BT474 (1500 cells per well), MCF-7 (1500 cells per well), HCC827 (2000 cells per well), SK-BR-3 (2000 cells per well), A549 (2000 cells per well) were seeded into 96-well plates, the volume was 100 μL, and 6 rows and 7 columns were set. The plate was placed in an incubator at 37° C. of 5% carbon dioxide overnight. Compounds were dissolved in DMSO to obtain the concentration of […], and then gradually diluted to obtain the concentration of compound as […], 0.1 μM, 0.01 μM, 0.001 μM, 0.0001 μM. 2 μL of compound solution was added into 998 μL of medium, and the resulting mixture was thoroughly mixed. 100 μL of mixture was added into 96-well plate. […] After the cells were cultured for 68 hours, 20 μL of MTT (5 mg/mL) was added. After 4 hours, the supernatant was discarded and 150 μL of DMSO was added. The resulting system was shaken for 10 minutes, and the plate was read with Synergy HT (Bio TeK) (OD490). The data was calculated by GraphPad Prism version 4.0, and IC50 was obtained by non-linear regression model using dose-response curve.

[6] = test system: HCC827 (non-small cell lung cancer cells, EGFR del E746-A750); assay: Cell proliferation and growth inhibition analysis; assay type: cell-based; conditions: Homo sapiens, 72 hours, read-out: Inhibitory activity on cell proliferation (IC50, μM) HCC827
Method: as §6, §7

[7] = test system: SK-BR-3 (breast cancer cells, Her2 overexpression); assay: Cell proliferation and growth inhibition analysis; assay type: cell-based; conditions: Homo sapiens; SK-BR-3 cells, 72 hours; read-out: Inhibitory activity on cell proliferation (IC50, μM) SK-BR-3
Method: as §6, with “Cell proliferation and growth inhibition analysis: H1975 (non-small cell lung cancer cells, EGFR^L858/T790M), HCC827 (non-small cell lung cancer cells, EGFR^del E746-A750), A549 (non-small cell lung cancer cells, EGFR wild-type), BT474 (breast cancer cells, Her2 overexpression), SK-BR-3 (breast cancer cells, Her2 overexpression), MCF-7 (breast cancer cells, […]) cells were obtained from ATCC. Cell proliferation” for “Cell proliferation”

[8] = test system: A549 (non-small cell lung cancer cells, EGFR wild-type); assay: Cell proliferation and growth inhibition analysis; assay type: cell-based; conditions: Homo sapiens, 72 hours, read-out: Inhibitory activity on cell proliferation (IC50, μM) A549
Method: as §6, with “Cell proliferation and growth inhibition analysis: H1975 (non-small cell lung cancer cells, EGFR^L858/T790M), HCC827 (non-small cell lung cancer cells, EGFR^del E746-A750), A549 (non-small cell lung cancer cells, EGFR wild-type), BT474 (breast cancer cells, Her2 overexpression), SK-BR-3 (breast cancer cells, Her2 overexpression), MCF-7 (breast cancer cells, […]) cells were obtained from ATCC. Cell proliferation” for “Cell proliferation”

[9] = test system: BT474 (breast cancer cells, Her2 overexpression); assay: Cell proliferation and growth inhibition analysis; assay type: cell-based; conditions: Homo sapiens, BT-474, 72 hours, read-out: Inhibitory activity on cell proliferation (IC50, μM) BT474
Method: as §6, with “Cell proliferation and growth inhibition analysis: H1975 (non-small cell lung cancer cells, EGFR^L858/T790M), HCC827 (non-small cell lung cancer cells, EGFR^del E746-A750), A549 (non-small cell lung cancer cells, EGFR wild-type), BT474 (breast cancer cells, Her2 overexpression), SK-BR-3 (breast cancer cells, Her2 overexpression), MCF-7 (breast cancer cells, […]) cells were obtained from ATCC. Cell proliferation” for “Cell proliferation”

[10] = test system: MCF-7; assay: Cell proliferation and growth inhibition analysis; assay type: cell-based; conditions: Homo sapiens, MCF7; MCF-7 cells, 72 hours; read-out: Inhibitory activity on cell proliferation (IC50, μM) MCF-7
Method: as §6, with “Cell proliferation and growth inhibition analysis: H1975 (non-small cell lung cancer cells, EGFR^L858/T790M), HCC827 (non-small cell lung cancer cells, EGFR^del E746-A750), A549 (non-small cell lung cancer cells, EGFR wild-type), BT474 (breast cancer cells, Her2 overexpression), SK-BR-3 (breast cancer cells, Her2 overexpression), MCF-7 (breast cancer cells, […]) cells were obtained from ATCC. Cell proliferation” for “Cell proliferation”

[11] = biological target: EGFR-L858R (Homo sapiens (Human), UniProt P00533, L858R); assay: In vitro EGFR kinase activity assay (Z'-Lyte); assay type: biochemical; conditions: read-out: Inhibitory activity on EGFR kinase (IC50, nM) L858R;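 also: Cell-free kinase reaction with peptide substrate and ATP, 1.5 h at room temperature, then development step cleaving non-phosphorylated peptide, 10-point dilution series 0.051–1000 nM, phosphopeptide as 100% phosphorylation control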
Method: as §8, §9, §10

[12] = biological target: FLT3 (Homo sapiens (Human), UniProt P36888); assay: FLT3 kinase activity assay (Caliper); assay type: biochemical; conditions: read-out: Inhibitory activity on kinase (IC50, nM) FLT3
Method: as §1, §2, §3, §4, §5

EGFR-L858R/T790M, sequence (P00533 25-1210 T790M/L858R): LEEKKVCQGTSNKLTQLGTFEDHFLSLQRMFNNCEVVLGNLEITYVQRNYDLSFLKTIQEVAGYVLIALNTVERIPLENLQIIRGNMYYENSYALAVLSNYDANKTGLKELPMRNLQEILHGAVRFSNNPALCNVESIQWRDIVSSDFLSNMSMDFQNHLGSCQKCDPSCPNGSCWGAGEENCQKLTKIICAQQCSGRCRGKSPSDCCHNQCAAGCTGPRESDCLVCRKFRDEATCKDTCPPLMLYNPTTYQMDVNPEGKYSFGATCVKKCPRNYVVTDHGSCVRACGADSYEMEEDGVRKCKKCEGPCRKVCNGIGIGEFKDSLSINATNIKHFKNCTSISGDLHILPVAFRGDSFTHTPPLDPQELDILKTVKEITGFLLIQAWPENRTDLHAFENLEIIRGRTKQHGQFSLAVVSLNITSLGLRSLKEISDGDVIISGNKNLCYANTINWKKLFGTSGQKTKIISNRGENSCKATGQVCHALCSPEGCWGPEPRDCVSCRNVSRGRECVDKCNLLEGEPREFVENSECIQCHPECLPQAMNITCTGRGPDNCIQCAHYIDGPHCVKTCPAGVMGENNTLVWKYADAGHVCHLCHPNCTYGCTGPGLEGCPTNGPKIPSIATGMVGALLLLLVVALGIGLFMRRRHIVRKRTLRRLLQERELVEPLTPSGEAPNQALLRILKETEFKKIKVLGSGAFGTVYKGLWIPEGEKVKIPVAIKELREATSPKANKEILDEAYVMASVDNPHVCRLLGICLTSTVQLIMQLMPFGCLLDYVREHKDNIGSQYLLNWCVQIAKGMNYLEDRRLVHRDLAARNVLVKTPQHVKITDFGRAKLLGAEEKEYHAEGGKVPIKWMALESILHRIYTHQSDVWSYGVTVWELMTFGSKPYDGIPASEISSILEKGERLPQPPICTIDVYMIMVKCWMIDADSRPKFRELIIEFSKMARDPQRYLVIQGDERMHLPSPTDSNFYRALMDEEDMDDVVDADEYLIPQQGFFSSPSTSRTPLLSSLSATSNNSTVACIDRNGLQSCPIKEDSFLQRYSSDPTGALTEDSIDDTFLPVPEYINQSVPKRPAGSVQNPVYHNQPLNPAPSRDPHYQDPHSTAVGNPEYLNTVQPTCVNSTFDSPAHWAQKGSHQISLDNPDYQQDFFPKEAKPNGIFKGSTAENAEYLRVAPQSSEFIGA
EGFR-T790M, sequence (P00533 25-1210 T790M): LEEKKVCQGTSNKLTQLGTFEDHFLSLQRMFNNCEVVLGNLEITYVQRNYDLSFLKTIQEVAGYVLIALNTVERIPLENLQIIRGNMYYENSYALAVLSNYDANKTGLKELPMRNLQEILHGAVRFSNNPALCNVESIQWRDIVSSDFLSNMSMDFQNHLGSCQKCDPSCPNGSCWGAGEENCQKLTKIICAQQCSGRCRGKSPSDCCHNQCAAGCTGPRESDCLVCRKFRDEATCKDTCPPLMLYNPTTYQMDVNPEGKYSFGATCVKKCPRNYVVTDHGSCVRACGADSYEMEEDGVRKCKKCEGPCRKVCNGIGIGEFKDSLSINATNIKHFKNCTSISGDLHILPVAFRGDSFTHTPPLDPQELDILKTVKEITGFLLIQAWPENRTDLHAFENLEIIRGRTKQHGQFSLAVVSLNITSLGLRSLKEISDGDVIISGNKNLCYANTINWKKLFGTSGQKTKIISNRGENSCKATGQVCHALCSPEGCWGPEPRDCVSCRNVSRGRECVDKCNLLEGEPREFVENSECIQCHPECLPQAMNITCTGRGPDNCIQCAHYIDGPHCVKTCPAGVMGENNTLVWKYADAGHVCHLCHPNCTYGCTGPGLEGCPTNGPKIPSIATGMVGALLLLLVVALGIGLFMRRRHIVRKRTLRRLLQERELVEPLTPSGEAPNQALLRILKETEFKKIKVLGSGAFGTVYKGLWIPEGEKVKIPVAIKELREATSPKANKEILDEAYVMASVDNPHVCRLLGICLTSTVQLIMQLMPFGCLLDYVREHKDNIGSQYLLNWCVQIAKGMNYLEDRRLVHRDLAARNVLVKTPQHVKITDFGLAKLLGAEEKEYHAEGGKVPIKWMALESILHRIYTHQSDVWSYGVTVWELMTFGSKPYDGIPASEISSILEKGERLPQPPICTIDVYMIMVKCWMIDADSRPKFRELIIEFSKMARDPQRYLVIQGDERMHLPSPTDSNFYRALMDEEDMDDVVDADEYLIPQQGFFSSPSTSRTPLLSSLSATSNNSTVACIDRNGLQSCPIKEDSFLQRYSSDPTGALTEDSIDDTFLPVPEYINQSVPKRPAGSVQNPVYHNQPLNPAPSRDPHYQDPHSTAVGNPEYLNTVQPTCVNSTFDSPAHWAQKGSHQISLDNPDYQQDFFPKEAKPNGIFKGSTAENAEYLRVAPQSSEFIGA
EGFR-L858R, sequence (P00533 25-1210 L858R): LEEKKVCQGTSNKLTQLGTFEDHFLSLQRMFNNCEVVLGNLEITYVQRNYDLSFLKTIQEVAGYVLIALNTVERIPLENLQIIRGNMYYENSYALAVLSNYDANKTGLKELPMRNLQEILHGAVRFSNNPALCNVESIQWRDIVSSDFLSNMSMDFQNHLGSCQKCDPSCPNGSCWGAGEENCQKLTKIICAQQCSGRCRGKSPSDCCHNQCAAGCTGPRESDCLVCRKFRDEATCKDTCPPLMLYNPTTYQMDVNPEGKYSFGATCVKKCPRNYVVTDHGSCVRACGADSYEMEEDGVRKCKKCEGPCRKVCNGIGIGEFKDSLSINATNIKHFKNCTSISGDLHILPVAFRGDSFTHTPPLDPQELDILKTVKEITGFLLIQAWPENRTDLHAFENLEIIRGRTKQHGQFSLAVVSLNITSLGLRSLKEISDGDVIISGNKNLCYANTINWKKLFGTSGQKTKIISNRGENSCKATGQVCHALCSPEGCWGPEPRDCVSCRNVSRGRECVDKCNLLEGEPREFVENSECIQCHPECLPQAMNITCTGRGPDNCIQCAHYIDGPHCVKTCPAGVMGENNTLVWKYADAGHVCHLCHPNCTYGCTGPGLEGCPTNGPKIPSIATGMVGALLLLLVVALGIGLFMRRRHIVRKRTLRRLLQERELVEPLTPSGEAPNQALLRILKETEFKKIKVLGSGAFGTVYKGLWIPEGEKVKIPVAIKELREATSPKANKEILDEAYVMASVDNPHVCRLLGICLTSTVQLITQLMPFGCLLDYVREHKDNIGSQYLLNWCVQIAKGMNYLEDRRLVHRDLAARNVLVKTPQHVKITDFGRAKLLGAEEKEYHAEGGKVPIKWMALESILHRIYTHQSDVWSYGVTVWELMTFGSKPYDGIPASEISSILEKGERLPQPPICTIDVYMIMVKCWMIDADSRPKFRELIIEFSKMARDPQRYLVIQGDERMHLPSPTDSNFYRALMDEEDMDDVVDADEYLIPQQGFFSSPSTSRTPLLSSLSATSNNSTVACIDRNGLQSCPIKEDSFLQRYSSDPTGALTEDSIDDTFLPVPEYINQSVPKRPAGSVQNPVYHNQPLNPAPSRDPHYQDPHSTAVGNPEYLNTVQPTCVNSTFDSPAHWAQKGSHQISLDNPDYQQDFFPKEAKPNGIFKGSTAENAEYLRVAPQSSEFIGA
FLT3, sequence (P36888 27-993): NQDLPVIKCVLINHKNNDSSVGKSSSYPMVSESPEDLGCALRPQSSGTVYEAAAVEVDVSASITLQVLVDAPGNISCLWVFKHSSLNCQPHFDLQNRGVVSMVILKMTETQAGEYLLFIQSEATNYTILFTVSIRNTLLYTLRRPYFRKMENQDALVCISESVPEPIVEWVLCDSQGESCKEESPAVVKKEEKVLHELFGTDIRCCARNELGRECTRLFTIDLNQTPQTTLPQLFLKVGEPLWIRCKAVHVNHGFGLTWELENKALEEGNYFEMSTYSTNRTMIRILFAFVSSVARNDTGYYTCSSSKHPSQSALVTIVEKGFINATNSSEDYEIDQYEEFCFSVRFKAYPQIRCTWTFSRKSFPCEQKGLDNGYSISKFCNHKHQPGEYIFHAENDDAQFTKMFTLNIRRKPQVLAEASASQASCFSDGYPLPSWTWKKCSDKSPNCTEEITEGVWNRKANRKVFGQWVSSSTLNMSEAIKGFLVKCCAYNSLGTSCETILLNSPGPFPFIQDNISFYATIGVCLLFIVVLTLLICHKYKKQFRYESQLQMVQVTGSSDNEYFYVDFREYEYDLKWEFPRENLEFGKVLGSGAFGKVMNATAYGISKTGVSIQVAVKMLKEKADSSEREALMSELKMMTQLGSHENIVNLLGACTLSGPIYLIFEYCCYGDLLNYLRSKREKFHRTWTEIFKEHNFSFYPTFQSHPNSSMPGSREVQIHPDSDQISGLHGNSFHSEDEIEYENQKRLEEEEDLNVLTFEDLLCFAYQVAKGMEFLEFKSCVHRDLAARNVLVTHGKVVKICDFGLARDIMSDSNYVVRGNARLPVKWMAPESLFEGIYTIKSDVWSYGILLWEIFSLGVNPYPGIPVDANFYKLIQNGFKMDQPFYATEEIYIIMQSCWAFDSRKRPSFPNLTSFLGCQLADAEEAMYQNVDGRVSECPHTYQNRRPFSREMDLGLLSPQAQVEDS
BLK, sequence (P51451 whole entry): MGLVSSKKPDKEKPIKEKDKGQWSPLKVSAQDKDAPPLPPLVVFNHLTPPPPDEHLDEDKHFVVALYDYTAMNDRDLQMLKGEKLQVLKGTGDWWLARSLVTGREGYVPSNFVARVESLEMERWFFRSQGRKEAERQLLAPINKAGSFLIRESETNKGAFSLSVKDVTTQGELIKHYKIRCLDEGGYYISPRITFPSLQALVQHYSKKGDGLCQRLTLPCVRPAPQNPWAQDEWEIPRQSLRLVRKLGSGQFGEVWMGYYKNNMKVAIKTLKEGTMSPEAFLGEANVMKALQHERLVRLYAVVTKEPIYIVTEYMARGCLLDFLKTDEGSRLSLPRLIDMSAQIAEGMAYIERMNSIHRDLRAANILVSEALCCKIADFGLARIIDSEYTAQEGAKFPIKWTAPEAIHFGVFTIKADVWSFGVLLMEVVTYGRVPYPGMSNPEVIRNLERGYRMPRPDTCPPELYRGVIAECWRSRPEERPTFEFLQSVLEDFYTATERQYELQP

Row | SMILES | IC50 [1] | IC50 [2] | IC50 [3] | IC50 [4] | IC50 [5] | IC50 [6] | IC50 [7] | IC50 [8] | IC50 [9] | IC50 [10] | IC50 [11] | IC50 [12]
1 | COc1ccc(Nc2ncc3ncc(=O)n(-c4ccc(N)cc4)c3n2)cc1 [Compound 001] | > 10000 nM | > 10000 nM | > 10000 nM | > 10000 nM | > 10 µM | > 10 µM | > 10 µM | > 10 µM | > 10 µM | > 10 µM | > 10000 nM | 27 nM
2 | C=CC(=O)Nc1ccc(-n2c(=O)cnc3cnc(Nc4ccc(OC)cc4)nc32)cc1 [Compound 002, N-(4-(2-(4-methoxyphenylamino)-7-oxo-8(7H)-pteridin-yl)phenyl)acrylamide] | 446 nM | 665 nM | 3040 nM | 606 nM | 2.75 µM | 1.29 µM | 1.57 µM | 1.23 µM | > 10 µM | 1.51 µM | 546 nM | 128 nM
3 | C=CC(=O)Nc1ccc(-n2c(=O)cnc3cnc(Nc4ccc(N5CCOCC5)cc4)nc32)cc1 [Compound 003, N-(4-(2-(4-morpholino-phenylamino)-7-oxo-8(7H)-pteridin-yl)phenyl)acrylamide] | 8010 nM | 8700 nM | 4170 nM | 3300 nM | > 10 µM | 3.01 µM | > 10 µM | > 10 µM | > 10 µM | > 10 µM | 4080 nM | 137 nM
4 | C=CC(=O)Nc1ccc(-n2c(=O)c(C)nc3cnc(Nc4ccc(OC)cc4)nc32)cc1 [Compound 004, N-(4-(2-(4-methoxyphenylamino)-6-methyl-7-oxo-8(7H)-pteridin-yl)phenyl)acrylamide] | 3180 nM | > 10000 nM | > 10000 nM | > 10000 nM | > 10 µM | 3.33 µM | > 10 µM | > 10 µM | > 10 µM | > 10 µM | 4880 nM | 206 nM
5 | COc1ccc(Nc2ncc3ncc(=O)n(-c4cccc(N)c4)c3n2)cc1 [Compound 005] | > 10000 nM | > 10000 nM | > 10000 nM | > 10000 nM | > 10 µM | > 10 µM | > 10 µM | > 10 µM | > 10 µM | > 10 µM | 87200 nM | 30 nM
6 | C=CC(=O)Nc1cccc(-n2c(=O)cnc3cnc(Nc4ccc(OC)cc4)nc32)c1 [Compound 006, N-(3-(2-(4-methoxyphenylamino)-7-oxo-8(7H)-pteridin-yl)phenyl) acrylamide] | 10.6 nM | 19.4 nM | 69 nM | 8.4 nM | 0.133 µM | 0.009 µM | 2.35 µM | 0.73 µM | 2.24 µM | 15 µM | 10.1 nM | 1590 nM
7 | CCC(=O)Nc1cccc(-n2c(=O)cnc3cnc(Nc4ccc(OC)cc4)nc32)c1 [Compound 007, N-(3-(2-(4-methoxyphenylamino)-7-oxo-8(7H)-pteridin-yl)phenyl) propionamide] | > 10000 nM | > 10000 nM | > 10000 nM | > 10000 nM | > 10 µM | > 10 µM | > 10 µM | > 10 µM | > 10 µM | > 10 µM | > 10000 nM | 1490 nM
8 | CCC(=O)Nc1ccc(-n2c(=O)cnc3cnc(Nc4ccc(OC)cc4)nc32)cc1 [Compound 008, N-(4-(2-(4-methoxyphenylamino)-7-oxo-8(7H)-pteridin-yl)phenyl) propionamide] | > 10000 nM | > 10000 nM | > 10000 nM | > 10000 nM | > 10 µM | > 10 µM | > 10 µM | 6.12 µM | > 10 µM | > 10 µM | > 10000 nM | 115 nM
9 | COc1ccc(Nc2ncc3ncc(=O)n(-c4ccc(NC(=O)/C=C/CN(C)C)cc4)c3n2)cc1 [Compound 009, 4-(dimethylamino)-N-(4-(2-(4-methoxyphenylamino)-7-oxo-8(7H)-pteridin-yl)phenyl)-2-buteneamide] | 60.7 nM | 10.9 nM | 5310 nM | 39.1 nM | 4.65 µM | 0.91 µM | 1.15 µM | 2.24 µM | 0.84 µM | 2.41 µM | 81.1 nM | 152 nM
10 | COc1ccc(Nc2ncc3ncc(=O)n(-c4cccc(NC(=O)/C=C/CN(C)C)c4)c3n2)cc1 [Compound 010, 4-(dimethylamino)-N-(3-(2-(4-methoxyphenylamino)-7-oxo-8(7H)-pteridin-yl)phenyl)-2-buteneamide] | 8090 nM | 2250 nM | 106 nM | 2020 nM | > 10 µM | 4.16 µM | 7.17 µM | > 10 µM | 3.43 µM | 3.6 µM | 6080 nM | 4390 nM
11 | COc1ccc(-n2c(=O)cnc3cnc(Nc4ccc(N)cc4)nc32)cc1 [Compound 030, 2-(4-aminophenylamino)-8-(4-methoxyphenyl)-7(8H)-pteridin-one] | 3420 nM | – | > 10000 nM | 6750 nM | 15.3 µM | 4.65 µM | – | – | – | – | 23800 nM | 43 nM
12 | C=CC(=O)Nc1ccc(-n2c(=O)cnc3cnc(Nc4ccc(N5CCN(C)CC5)cc4OC)nc32)cc1 [Compound 031] | 429 nM | – | 812 nM | 229 nM | 2.88 µM | 0.466 µM | – | – | – | – | 376 nM | 180 nM

Source: patent US9670213B2, “Pteridine ketone derivative and applications thereof as EGFR, BLK, and FLT3 inhibitor” (EAST CHINA UNIVERSITY OF SCIENCE AND TECHNOLOGY, priority 2012, dated 2017)
